# Experiments:
# [1] = system: spontaneously diabetic BB/Wor dp rats; assay: Metabolic parameters, serum insulin and glucagon after intratesticular islet grafts; format: in vivo, rat
# Description: This study examined insulin and glucagon secretory patterns in spontaneously diabetic bb/Wor dp rats transplanted with abdominal, intratesticular, islet grafts. Diabetic, BB/Wor dp, rats received intratesticular islet grafts from MHC-compatible BB/Wor dr rats and no immunosuppression. After a period of 74±15 days, of normoglycemia, three different groups (controls; BB/Wor dp, transplanted; and BB/Wor dp, insulin treated) were given the following challenges; (1) an oral glucose tolerance test (OGTT), (2) a single oral dose of glipizide, followed by an OGTT, and (3) arginine, by intravenous infusion. The results of this study are shown in Tables 1 and 2 and FIGS. 5 and 6.
# [2] = system: spontaneously diabetic BB/Wor dp rats; assay: Pancreatic and testicular insulin and glucagon content; format: in vivo, rat
substance,measurement,setting,value
insulin,Plasma Glucose,[1]; After 2.5 months,350 ± 40 mg/dL
same,Plasma Glucose,[1]; Prior to therapy,510 ± 13+ mg/dl
same,Fasting Plasma Glucagon,"[1]; rat, in vivo",47.4 ± 4.9 pg/mL
same,Weight gain,"[1]; rat, in vivo",48 ± 14$ g
same,Pancreatic Glucagon content,[2]; pancreas,6.9 ± 0.80 ng/mg
same,Pancreatic Insulin content,[2]; pancreas,0.76 ± 0.12 µg/g
same,Testicular Glucagon content,[2]; testes fractions,0.0 ng/mg
same,Testicular Insulin content,[2]; testes fractions,0.0 µg/g

# Reference: patent publication US20020065212A1, “METHODS OF TREATING DISEASE USING SERTOLI CELLS AND ALLOGRAFTS OR XENOGRAFTS” (priority 1996, published 2002)
